Experimental data reported in patent US10100331B2, “Reagent for gene-drug therapeutics” (Agency for Science, Technology and Research, priority 2012, dated 2018).

Key:
[1] = tested on: Neuro2A cells; assay: Transfection of Neuro2A cells with PKC inhibitor; type: cell-based; conditions: 2 μM, 45 min prior and after transfection; LPEI/pDNA N/P=20; 24 h
Method: Neuro2A cells were treated with GÖ6983 (2 μM) for 45 min prior transfection. Transfection mixture (LPEI/pDNA at N/P=20) was replaced with DMEM containing 0.5% FBS and GÖ6983 (2 μM). Representative images (acquired 24 h post transfection) were shown.

[2] = target: T1, HDAC8 (Homo sapiens, UniProt Q9BY41); conditions: Targeted HDAC/Sirtuin: 8; cited from earlier work
T1 sequence (Q9BY41 1-377): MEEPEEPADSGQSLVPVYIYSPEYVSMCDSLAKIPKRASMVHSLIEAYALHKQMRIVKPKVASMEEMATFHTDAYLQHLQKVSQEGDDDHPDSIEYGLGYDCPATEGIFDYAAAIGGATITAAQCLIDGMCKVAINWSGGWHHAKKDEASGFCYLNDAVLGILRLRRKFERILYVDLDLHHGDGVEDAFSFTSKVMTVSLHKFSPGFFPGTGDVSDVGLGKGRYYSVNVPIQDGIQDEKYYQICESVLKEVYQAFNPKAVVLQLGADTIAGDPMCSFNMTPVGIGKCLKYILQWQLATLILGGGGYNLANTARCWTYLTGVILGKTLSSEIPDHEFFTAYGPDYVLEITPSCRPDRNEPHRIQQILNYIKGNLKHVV

[3] = target: HDAC3 (Homo sapiens, UniProt O15379); conditions: Targeted HDAC/Sirtuin: 3; cited from earlier work
Sequence of HDAC3 (O15379 whole entry): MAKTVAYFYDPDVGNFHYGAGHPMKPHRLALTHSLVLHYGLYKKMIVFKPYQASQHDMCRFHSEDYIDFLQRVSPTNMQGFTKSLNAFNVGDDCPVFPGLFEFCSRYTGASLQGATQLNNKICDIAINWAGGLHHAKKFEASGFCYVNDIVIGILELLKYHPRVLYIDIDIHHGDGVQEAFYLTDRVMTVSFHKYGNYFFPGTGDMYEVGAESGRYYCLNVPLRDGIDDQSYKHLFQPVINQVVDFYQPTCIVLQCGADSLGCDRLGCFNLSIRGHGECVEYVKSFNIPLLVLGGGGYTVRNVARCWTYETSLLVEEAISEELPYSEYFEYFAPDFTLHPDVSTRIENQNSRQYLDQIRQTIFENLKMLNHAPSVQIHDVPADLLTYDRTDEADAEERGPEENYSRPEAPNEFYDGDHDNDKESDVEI
Sequence of HDAC3 (Q9Y618 395-489 partner limits assumed): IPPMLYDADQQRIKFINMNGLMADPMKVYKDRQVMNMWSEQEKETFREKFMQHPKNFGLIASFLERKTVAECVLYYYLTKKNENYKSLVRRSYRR

[4] = target: T2, HDAC6 (Homo sapiens, UniProt Q9UBN7); conditions: Targeted HDAC/Sirtuin: 6; cited from earlier work
T2 sequence (Q9UBN7 1-1215): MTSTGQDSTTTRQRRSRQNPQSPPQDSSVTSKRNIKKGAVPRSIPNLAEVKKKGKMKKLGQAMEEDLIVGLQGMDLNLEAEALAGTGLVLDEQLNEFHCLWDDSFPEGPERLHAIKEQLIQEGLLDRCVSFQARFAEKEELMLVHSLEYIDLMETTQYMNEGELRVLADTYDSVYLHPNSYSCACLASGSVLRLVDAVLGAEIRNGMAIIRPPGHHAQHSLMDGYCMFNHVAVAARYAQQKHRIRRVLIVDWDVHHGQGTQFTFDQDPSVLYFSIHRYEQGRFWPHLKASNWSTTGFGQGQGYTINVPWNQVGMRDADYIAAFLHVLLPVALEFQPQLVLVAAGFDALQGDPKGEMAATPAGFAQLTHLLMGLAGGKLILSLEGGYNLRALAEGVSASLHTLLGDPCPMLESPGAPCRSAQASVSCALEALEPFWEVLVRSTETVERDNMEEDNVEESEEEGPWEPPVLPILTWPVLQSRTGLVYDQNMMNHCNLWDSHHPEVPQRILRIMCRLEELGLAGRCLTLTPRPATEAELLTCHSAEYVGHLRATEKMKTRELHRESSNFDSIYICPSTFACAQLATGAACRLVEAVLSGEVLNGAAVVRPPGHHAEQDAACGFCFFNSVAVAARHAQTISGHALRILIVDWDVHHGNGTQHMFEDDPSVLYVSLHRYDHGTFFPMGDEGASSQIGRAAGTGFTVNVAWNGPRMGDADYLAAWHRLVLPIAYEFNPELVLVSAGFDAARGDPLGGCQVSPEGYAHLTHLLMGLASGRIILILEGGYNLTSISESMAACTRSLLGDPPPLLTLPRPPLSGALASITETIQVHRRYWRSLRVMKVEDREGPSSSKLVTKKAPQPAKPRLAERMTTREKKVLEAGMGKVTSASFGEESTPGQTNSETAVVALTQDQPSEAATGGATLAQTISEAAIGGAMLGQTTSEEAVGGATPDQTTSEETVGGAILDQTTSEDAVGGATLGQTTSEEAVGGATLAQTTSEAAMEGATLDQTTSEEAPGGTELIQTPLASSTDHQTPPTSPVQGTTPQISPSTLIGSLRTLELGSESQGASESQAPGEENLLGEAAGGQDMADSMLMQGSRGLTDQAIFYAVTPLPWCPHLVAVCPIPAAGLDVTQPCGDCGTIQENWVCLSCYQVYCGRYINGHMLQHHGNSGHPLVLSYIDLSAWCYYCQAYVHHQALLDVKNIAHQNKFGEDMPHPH

[5] = target: HDAC1 (Homo sapiens, UniProt Q13547); conditions: Targeted HDAC/Sirtuin: 1; cited from earlier work
Sequence of HDAC1 (Q13547 whole entry, species assumed): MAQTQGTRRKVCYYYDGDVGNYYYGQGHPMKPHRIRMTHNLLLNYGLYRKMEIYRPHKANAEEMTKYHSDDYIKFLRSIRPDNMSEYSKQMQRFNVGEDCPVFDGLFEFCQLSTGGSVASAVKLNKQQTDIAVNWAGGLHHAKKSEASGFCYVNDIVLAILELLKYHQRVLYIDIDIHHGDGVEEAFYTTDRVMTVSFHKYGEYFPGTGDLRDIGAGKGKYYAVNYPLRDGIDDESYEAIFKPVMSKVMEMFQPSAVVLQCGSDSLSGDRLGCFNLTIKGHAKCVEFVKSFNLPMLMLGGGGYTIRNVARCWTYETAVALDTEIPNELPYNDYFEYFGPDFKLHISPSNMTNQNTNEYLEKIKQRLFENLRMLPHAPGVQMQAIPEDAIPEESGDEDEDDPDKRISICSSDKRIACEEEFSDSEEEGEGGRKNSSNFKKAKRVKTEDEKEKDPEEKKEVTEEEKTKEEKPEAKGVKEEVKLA

[6] = target: HDAC2 (Homo sapiens, UniProt Q92769); conditions: Targeted HDAC/Sirtuin: 2; cited from earlier work
Sequence of HDAC2 (Q92769 whole entry): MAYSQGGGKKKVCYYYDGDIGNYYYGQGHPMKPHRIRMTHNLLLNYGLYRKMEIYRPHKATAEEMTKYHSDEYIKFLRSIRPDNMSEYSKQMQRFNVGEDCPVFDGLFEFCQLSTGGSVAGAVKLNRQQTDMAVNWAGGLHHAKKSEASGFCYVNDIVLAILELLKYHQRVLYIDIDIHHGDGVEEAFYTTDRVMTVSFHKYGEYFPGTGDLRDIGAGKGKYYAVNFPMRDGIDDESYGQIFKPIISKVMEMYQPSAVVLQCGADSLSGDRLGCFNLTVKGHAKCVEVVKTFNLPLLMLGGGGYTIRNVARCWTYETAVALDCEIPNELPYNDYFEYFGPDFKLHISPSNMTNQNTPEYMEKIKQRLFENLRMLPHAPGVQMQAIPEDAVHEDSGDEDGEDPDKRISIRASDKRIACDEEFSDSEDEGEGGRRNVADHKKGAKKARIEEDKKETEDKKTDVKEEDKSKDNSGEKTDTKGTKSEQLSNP

| SMILES | transfection [1] | IC50 [2] [µM] | IC50 [3] [µM] | IC50 [4] [µM] | IC50 [5] [µM] | IC50 [6] [µM] |
| --- | --- | --- | --- | --- | --- | --- |
| COc1ccc2c(c1)c(C1=C(c3c[nH]c4ccccc34)C(=O)NC1=O)cn2CCCN(C)C [GÖ6983] | substantially reduced transfection | – | – | – | – | – |
| CCCCOc1ccc(CC(=O)NO)cc1 [Bufexamac] | – | 235 | 341 | 10.7 | – | – |
| Nc1ccccc1NC(=O)CCCCCCC(=O)Nc1ccccc1 [BML-210] | – | – | 2.62 | – | 15 | 10.9 |
